In brackets after ≈: the same amount, converted by molar mass.

For assay [1], the system named is Torulopsis glabrata. Description: Antifungal in vitro activity, agar dilution test (MIC). The assay is classed as cell-based. As to conditions: Kimmig agar, inoculum 2 - 5 x 10^3 fungal particles per spot, yeasts 24 h, 27°C. An excerpt: (§1) Versuchsbeschreibung: • Die in-vitro-Wirksamkeit - gemessen anhand der minimalen Hemmkonzentration - wurde im Agarverdünnungstest ermittelt. Auf Serien von Kimmig - Agarplatten, die die entsprechenden Wirkstoffkonzentrationen im Agar gelöst enthielten, wurden mit Hilfe eines automatischen Beimpfungsgerätes Proben der Keimsuspesionen tropfenförmig aufgebracht. Das Inokulum betrug 2 - 5 x 10^3 Pilzpartikel pro Impfpunkt. Im Falle der Hefen lag die Bebrütungsdauer bei 24 Stunden, im Falle der Dermatophyten bei 96 Stunden; Bebrütungstemperatur 27°C.
On the technique in general: In agar dilution, organisms are placed on agar that contains the substance at set levels.

Assay [2] has as its system Candida albicans. The assay is described as above. The assay is classed as cell-based. The following applies: Kimmig agar, inoculum 2 - 5 x 10^3 fungal particles per spot, yeasts 24 h, 27°C.
From the text: as §1

Assay [3] deals with Aspergillus fumigatus. Described as above. As to conditions: Kimmig agar, inoculum 2 - 5 x 10^3 fungal particles per spot, 27°C. The assay is classed as cell-based.
From the text: as §1

For assay [4], the system named is Microsporon canis. Described as above. The assay is classed as cell-based. As to conditions: Kimmig agar, inoculum 2 - 5 x 10^3 fungal particles per spot, dermatophytes 96 h, 27°C.
From the text: as §1

The test system of assay [5] is Trichophyton mentagrophytes. As to the kind of experiment: Antimicrobial in vivo activity (local and oral) in experimental guinea pig trichophytosis. Further details: species or system Meerschweinchen der Rasse Pirbright-white. As to conditions: for Wirkung lokale Therapie (1%-ige Lösung): local, 1 x daily from day 3 p.i., 1% solution in Dimethylsulfoxid : Glycerin = 1 : 4. An excerpt:
Versuchsbeschreibung: • Weiße Meerschweinchen der Rasse Pirbright-white werden auf dem geschorenen, nicht skarifizierten Rücken mit einer Mikro- und Makrokonidien-Suspension von Trichophyton mentagrophytes infiziert. Bei unbehandelten Tieren entwickelt sich innerhalb 12 Tagen p.i. das typische Bild einer Dermatophytose mit Rötung, Schuppung und Haarausfall bis zum totalen Integument-Defekt an der Infektionsstelle. […]

Assay [6] has as its system Trichophyton mentagr. As to the kind of experiment: Antifungal in vitro activity, agar dilution test (MIC). The format is cell-based, Trichophyton mentagrophytes. As to conditions: Kimmig agar, inoculum 2 - 5 x 10^3 fungal particles per spot, dermatophytes 96 h, 27°C.
From the text: as §1

The subject of assay [7] is Candida-Zellen. As to the kind of experiment: Antimicrobial in vivo activity (oral) in mouse candidosis. Further details: species or system Mäuse vom Typ SPF-CF. As to conditions: mice infected i.v. with Candida; 12,5 bis 25mg/kg 2 x daily over 5 days oral; survivors on day 6 p.i. As for the experimental part: Mäuse vom Typ SPF-CF werden intravenös mit 1-2 x 10^6 1 logarithmisch wachsenden Candida-Zellen, suspendiert in physiologischer Kochsalzlösung, infiziert. Die Tiere werden mit Dosierungen von 12,5 bis 25mg/kg Körpergewicht 2 x täglich über 5 Tage oral behandelt.
Unbehandelte Tiere starben 3 bis 6 Tage post infektionem. Die Ueberlebensrate am 6.Tag post infektionem betrug bei unbehandelten Kontrolltieren etwa 5 %.

As for “1-(4-Chlorphenyl)-4,4-dimethyl-2-(1,2,4-triazol-1-yl)-1-penten-3-ol [geometrisches Isomerengemisch (bekannt)]”, the “Minimale Hemmkonzentration” value in assay [1] is 4 µg/mL; in assay [2], 8 µg/mL; in assay [3], 8 µg/mL; in assay [4], 8 µg/mL; in assay [6] it was under 1 µg/mL. The “Wirkung lokale Therapie (1%-ige Lösung)” value in assay [5] was “schwache Wirkung”. In assay [7], the Wirkung entry was “+++ (Wirkung = ≥60% Ueberlebende am 6.Tag p.i.)”.
With `CC(C)(C)C(O)C(=Cc1ccc(Cl)cc1)n1cncn1` (single isomer, unassigned) [Form A, 1-(4-Chlorphenyl)-4,4-dimethyl-2-(1,2,4-triazol-1-yl)-1-penten-3-ol], the MIC in assay [1] (Nakaseomyces glabratus, 24 h, read-out: Minimale Hemmkonzentration) worked out at 1 µg/mL (≈ 3.43 µM). The “Minimale Hemmkonzentration” value in assay [2] was found to be 4 µg/mL; in assay [3] it was 32 µg/mL; in assay [4], 32 µg/mL; in assay [6] it was 4 µg/mL. In addition, the Wirkung entry in assay [7] is reported as “kW (keine Wirkung)”.
As for `CC(C)(C)C(O)C(=Cc1ccc(Cl)cc1)n1cncn1` (single isomer, unassigned) [Form B(1), 1-(4-Chlorphenyl)-4,4-dimethyl-2-(1,2,4-triazol-1-yl)-1-penten-3-ol], the “Minimale Hemmkonzentration” value is under 1 µg/mL in assay [1]; under 1 µg/mL in assay [2]; 1 to 4 µg/mL in assay [3]; under 1 µg/mL in assay [4]; under 1 µg/mL in assay [6]. The “Wirkung lokale Therapie (1%-ige Lösung)” value in assay [5] is “sehr gute Wirkung”. Moreover, the “Wirkung orale Therapie (50mg/kg/die)” value in assay [5] (oral, 1 x daily from day of infection, aqueous solution) is recorded as “sehr gute Wirkung”. In addition, the Wirkung entry in assay [7] is “+++++ (sehr gute Wirkung = >95% Ueberlebende am 6.Tag p.i.)”.
